Results taken from patent US6410704B1 (priority 1991, dated 2002).

Biological target: herpes protease (HSV-1 UL26 product, Pra) (Human herpesvirus 1, UniProt P10210)
Assay type: biochemical

herpes protease (HSV-1 UL26 product, Pra), sequence (P10210 whole entry, looked up): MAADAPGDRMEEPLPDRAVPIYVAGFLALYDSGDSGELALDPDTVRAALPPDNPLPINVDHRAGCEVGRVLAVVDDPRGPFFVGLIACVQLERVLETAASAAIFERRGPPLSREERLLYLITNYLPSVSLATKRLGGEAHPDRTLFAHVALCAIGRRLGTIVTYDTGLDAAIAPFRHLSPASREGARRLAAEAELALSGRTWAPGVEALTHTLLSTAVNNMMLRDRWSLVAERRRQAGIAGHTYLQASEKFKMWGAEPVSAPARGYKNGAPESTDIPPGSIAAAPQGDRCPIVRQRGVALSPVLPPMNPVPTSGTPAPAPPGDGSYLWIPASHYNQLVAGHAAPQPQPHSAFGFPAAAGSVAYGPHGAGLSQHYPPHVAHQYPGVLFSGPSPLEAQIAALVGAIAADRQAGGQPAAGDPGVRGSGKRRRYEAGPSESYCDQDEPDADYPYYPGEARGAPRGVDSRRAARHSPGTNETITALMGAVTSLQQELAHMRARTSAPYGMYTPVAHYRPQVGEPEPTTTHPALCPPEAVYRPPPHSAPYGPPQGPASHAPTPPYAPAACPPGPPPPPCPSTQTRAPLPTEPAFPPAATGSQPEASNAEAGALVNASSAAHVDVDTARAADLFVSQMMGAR

CCCCCCCCCCCCOS(=O)(=O)[O-].[Na+] [SDS, sodium dodecyl sulphate]
inhibition of the protease self-cleavage: 100%

O=S(=O)(F)Cc1ccccc1 [Phenylmethansulfonyl fluoride]
inhibition of the protease self-cleavage: partially inhibiting

CC(C)C[C@H](NC(=O)[C@@H](NC(=O)N[C@@H](Cc1ccccc1)C(=O)O)[C@@H]1CCN=C(N)N1)C(=O)N[C@H](C=O)Cc1ccccc1 [chymostatin]
inhibition of the protease: 100%
